Strand notation (5' to 3'): a small letter for the sugar, then the base; units joined by * are phosphorothioate-linked, units joined directly phosphodiester-linked; [ ] holds rarer units or linkages, { } end groups; capitals alone tell only the bases. k = constrained ethyl (cEt); [5mC] = 5-methylcytosine; d = 2'-deoxy (DNA)
What was measured:
UPCI:SCC090 cells = test: Cell proliferation assay in UPCI:SCC090 cells, CellTiter-Glo (Example 47); assay type: cell-based, human; settings: free uptake, approximately 144 hours
Protocol: Modified oligonucleotides described in the studies above were tested at various doses in tongue squamous cell carcinoma cell line UPCI:SCC090. A control oligonucleotide 792169, described herein above, was also tested.
Cultured UPCI:SCC090 cells at a density of 1000 cells/well were treated using free uptake with modified oligonucleotides diluted to concentrations described in the tables below. After approximately 144 hours, cell proliferation was measured using the luminescent cell viability CellTiter-Glo® 2.0 Assay (Promega). Results are presented in the tables below as percent control of the amount of luminescence in samples treated with modified oligonucleotides relative to untreated control cells (% UTC).

Yap1 mRNA [1] = test: Yap1 mRNA in SNU-1214 cells, RNA analysis (Example 46); assay type: cell-based, human; settings: free uptake, approximately 48 hours
Protocol: Modified oligonucleotides described in the studies above were tested at various doses in laryngeal squamous cell carcinoma cell line […]. A control oligonucleotide 792169, described herein above, was also tested.
Cultured SNU-1214 cells at a density of 5000 cells per well were treated using free uptake with modified oligonucleotides diluted to concentrations described in the tables below. After approximately 48 hours, Yap1 mRNA levels were measured as previously described using the Human Yap1 primer-probe set RTS4814. Yap1 mRNA levels were normalized to actin-beta content, as measured by primer probe set RTS5002. Results are presented in the tables below as percent control of the amount of Yap1 mRNA relative to untreated control cells (% UTC).

Yap1 mRNA [2] = test: Yap1 mRNA in SCC-4 cells, RNA analysis (Example 39); assay type: cell-based, human; settings: free uptake, approximately 48 hours
Protocol: (§1) Modified oligonucleotides described in the studies above were tested at various doses in tongue squamous cell carcinoma cell line SCC 4. A control oligonucleotide 792169, described herein above, was also tested.
Cultured SCC-4 cells at a density of 5000 cells per well were treated using free uptake with modified oligonucleotides diluted to concentrations described in the tables below. After approximately 48 hours, Yap1 mRNA levels were measured as previously described using the Human Yap1 primer-probe set RTS4814. Yap1 mRNA levels were normalized to actin-beta content, as measured by primer probe set RTS5002. Results are presented in the tables below as percent control of the amount of Yap1 mRNA relative to untreated control cells (% UTC).

CAL27 cells = test: Cell proliferation assay in CAL27 cells, CellTiter-Glo (Example 37); assay type: cell-based, human; settings: free uptake, approximately 144 hours
Protocol: Modified oligonucleotides described in the studies above were tested at various doses in tongue squamous cell carcinoma line CAL27. A control oligonucleotide 792169, described herein above, was also tested.
Cultured CAL27 cells at a density of 1000 cells/well were treated using free uptake with modified oligonucleotides diluted to concentrations described in the tables below. After approximately 144 hours, cell proliferation was measured using the luminescent cell viability CellTiter-Glo® 2.0 Assay (Promega). Results are presented in the tables below as percent control of the amount of luminescence in samples treated with modified oligonucleotides relative to untreated control cells (% UTC).

Yap1 mRNA [3] = test: Yap1 mRNA in SNU-1066 cells, RNA analysis (Example 44); assay type: cell-based, human; settings: free uptake, approximately 48 hours
Protocol: Modified oligonucleotides described in the studies above were tested at various doses in laryngeal squamous cell carcinoma line SNU-1066. A control oligonucleotide 792169, described herein above, was also tested.
Cultured SNU-1066 cells at a density of 5000 cells per well were treated using free uptake with modified oligonucleotides diluted to concentrations described in the tables below. After approximately 48 hours, Yap1 mRNA levels were measured as previously described using the Human Yap1 primer-probe set RTS4814. Yap1 mRNA levels were normalized to actin-beta content, as measured by primer probe set RTS5002. Results are presented in the tables below as percent control of the amount of Yap1 mRNA relative to untreated control cells (% UTC).

SCC-4 cells = test: Cell proliferation assay in SCC-4 cells, CellTiter-Glo (Example 39); assay type: cell-based, human; settings: free uptake, approximately 144 hours
Protocol: as §1
Cultured SCC-4 cells at a density of 1000 cells/well were treated using free uptake with modified oligonucleotides diluted to concentrations described in the tables below. After approximately 144 hours, cell proliferation was measured using the luminescent cell viability CellTiter-Glo® 2.0 Assay (Promega). Results are presented in the tables below as percent control of the amount of luminescence in samples treated with modified oligonucleotides relative to untreated control cells (% UTC).

BICR56 cells = test: Cell proliferation assay in BICR56 cells, CellTiter-Glo (Example 33); assay type: cell-based, human; settings: free uptake, approximately 144 hours
Protocol: Modified oligonucleotides described in the studies above were tested at various doses in squamous cell carcinoma adherent keratinocyte cell line BICR56. A control oligonucleotide 792169 was also tested.
Cultured BICR56 cells at a density of 1000 cells/well were treated using free uptake with modified oligonucleotides diluted to concentrations described in the tables below. After approximately 144 hours, cell proliferation was measured using the luminescent cell viability CellTiter-Glo® 2.0 Assay (Promega). Results are presented in the tables below as percent control of the amount of luminescence in samples treated with modified oligonucleotides relative to untreated control cells (% UTC).

Yap1 mRNA [4] = test: Yap1 mRNA levels in CAL33 xenograft tumors (Example 29); assay type: in vivo, human; settings: CAL33 xenografts, 50 mg/kg twice weekly for two weeks, relative to PBS treated animals
Protocol: A xenograft tumor model was used to evaluate activity of modified oligonucleotides targeted to human Yap1. One million CAL33 cells in 30% matrigel were implanted subcutaneously into the flanks of female CrTac:NCr-Foxnlnu (Taconic) mice. When tumors reached an average volume of 100 mm^3, approximately two weeks post-implantation, groups of eight mice were administered at 50 mg/kg twice weekly with modified oligonucleotides for two weeks. ION 792169 was administered as a control.
Tumor samples were collected for measurement of Yap1 mRNA levels by RT-qPCR. Yap1 mRNA levels were measured as previously described using the Human Yap1 primer-probe set RTS4814. Yap1 mRNA levels were normalized to actin-beta content, as measured by primer probe set RTS5002. Results are presented in the tables below as percent control of the amount of Yap1 mRNA relative to PBS treated animals (% control).

Substance	Antiproliferative effect (cell proliferation, luminescence) (UPCI:SCC090 cells; 0.04 μM) [% UTC]	Antiproliferative effect (cell proliferation, luminescence) (UPCI:SCC090 cells; 0.2 μM) [% UTC]	Antiproliferative effect (cell proliferation, luminescence) (UPCI:SCC090 cells; 1 μM) [% UTC]	Antiproliferative effect (cell proliferation, luminescence) (UPCI:SCC090 cells; 5 μM) [% UTC]	human Yap1 mRNA expression (Yap1 mRNA [1]; 0.04 μM) [% UTC]	human Yap1 mRNA expression (Yap1 mRNA [1]; 0.2 μM) [% UTC]	human Yap1 mRNA expression (Yap1 mRNA [1]; 1 μM) [% UTC]	human Yap1 mRNA expression (Yap1 mRNA [1]; 5 μM) [% UTC]	human Yap1 mRNA expression (Yap1 mRNA [2]; 0.04 μM) [% UTC]	human Yap1 mRNA expression (Yap1 mRNA [2]; 0.2 μM) [% UTC]	human Yap1 mRNA expression (Yap1 mRNA [2]; 1 μM) [% UTC]	human Yap1 mRNA expression (Yap1 mRNA [2]; 5 μM) [% UTC]	Antiproliferative effect (cell proliferation, luminescence) (CAL27 cells; 0.08 μM) [% UTC]	Antiproliferative effect (cell proliferation, luminescence) (CAL27 cells; 0.4 μM) [% UTC]	Antiproliferative effect (cell proliferation, luminescence) (CAL27 cells; 2 μM) [% UTC]	Antiproliferative effect (cell proliferation, luminescence) (CAL27 cells; 10 μM) [% UTC]	human Yap1 mRNA expression (Yap1 mRNA [3]; 0.04 μM) [% UTC]	human Yap1 mRNA expression (Yap1 mRNA [3]; 0.2 μM) [% UTC]	human Yap1 mRNA expression (Yap1 mRNA [3]; 1 μM) [% UTC]	human Yap1 mRNA expression (Yap1 mRNA [3]; 5 μM) [% UTC]	further results
715487 (kA*kT*kT*dA*d[5mC]*dT*dT*d[5mC]*dA*dT*dA*dG*d[5mC]*kT*kT*kA) [compound 715487]	92	94	72	68	71	36	16	9	81	46	23	13	95	85	67	33	77	49	22	7	Antiproliferative effect (cell proliferation, luminescence) (SCC-4 cells; 0.04 μM): 158 % UTC; Antiproliferative effect (cell proliferation, luminescence) (SCC-4 cells; 0.2 μM): 121 % UTC; Antiproliferative effect (cell proliferation, luminescence) (SCC-4 cells; 1 μM): 106 % UTC; Antiproliferative effect (cell proliferation, luminescence) (SCC-4 cells; 5 μM): 69 % UTC; Antiproliferative effect (cell proliferation, luminescence) (BICR56 cells; 0.04 μM): 70 % UTC; Antiproliferative effect (cell proliferation, luminescence) (BICR56 cells; 0.2 μM): 26 % UTC; Antiproliferative effect (cell proliferation, luminescence) (BICR56 cells; 1 μM): 9 % UTC; Antiproliferative effect (cell proliferation, luminescence) (BICR56 cells; 5 μM): 4 % UTC
1198440 (AAGTGTATGTCAGAAG; cEt, 2'-MOE, 5-methylcytosine, phosphorothioate modifications, further chemistry not given here) [compound 1198440]	101	92	75	70	40	11	4	3	63	27	11	5	86	85	83	51	70	28	7	2	Yap1 mRNA levels in tumors, % control (Yap1 mRNA [4]): 12 % control; Antiproliferative effect (cell proliferation, luminescence) (SCC-4 cells; 0.04 μM): 82 % UTC; Antiproliferative effect (cell proliferation, luminescence) (SCC-4 cells; 0.2 μM): 60 % UTC; Antiproliferative effect (cell proliferation, luminescence) (SCC-4 cells; 1 μM): 21 % UTC; Antiproliferative effect (cell proliferation, luminescence) (SCC-4 cells; 5 μM): 11 % UTC; Antiproliferative effect (cell proliferation, luminescence) (BICR56 cells; 0.04 μM): 28 % UTC; Antiproliferative effect (cell proliferation, luminescence) (BICR56 cells; 0.2 μM): 10 % UTC; Antiproliferative effect (cell proliferation, luminescence) (BICR56 cells; 1 μM): 6 % UTC; Antiproliferative effect (cell proliferation, luminescence) (BICR56 cells; 5 μM): 4 % UTC
1198728 (TATTAGAGTATGTGGC; modified gapmer, further chemistry not given here) [compound 1198728]	–	–	–	–	–	–	–	–	–	–	–	–	–	–	–	–	–	–	–	–	Yap1 mRNA levels in tumors, % control (Yap1 mRNA [4]): 40 % control
CGCCGATAAGGTACAC (cEt gapmer, phosphorothioate backbone, further chemistry not given here) [ION 792169, reference compound]	100	104	99	93	97	104	106	109	92	106	105	104	96	102	103	90	91	94	93	98	Yap1 mRNA levels in tumors, % control (Yap1 mRNA [4]): 74 % control; Antiproliferative effect (cell proliferation, luminescence) (SCC-4 cells; 0.04 μM): 125 % UTC; Antiproliferative effect (cell proliferation, luminescence) (SCC-4 cells; 0.2 μM): 169 % UTC; Antiproliferative effect (cell proliferation, luminescence) (SCC-4 cells; 1 μM): 142 % UTC; Antiproliferative effect (cell proliferation, luminescence) (SCC-4 cells; 5 μM): 136 % UTC; Antiproliferative effect (cell proliferation, luminescence) (BICR56 cells; 0.04 μM): 106 % UTC; Antiproliferative effect (cell proliferation, luminescence) (BICR56 cells; 0.2 μM): 100 % UTC; Antiproliferative effect (cell proliferation, luminescence) (BICR56 cells; 1 μM): 92 % UTC; Antiproliferative effect (cell proliferation, luminescence) (BICR56 cells; 5 μM): 87 % UTC

Reference: patent US11214803B2, “Modulators of YAP1 expression” (Ionis Pharmaceuticals, Inc., priority 2019, dated 2022)
